Source: a melting point compilation (Tetko et al.; mined from patent text by program, amines drawn as free bases though some values may be those of a salt)

SMILES	melting point
OCC1=CC=C(CO)SS1	64 to 66 °C
O=C(O)CCCCCCCCCCOc1ccccc1OCc1ccccc1	62 to 63 °C
COC(=O)c1ncc(C(=O)O)c2ccccc12	189 °C
COC(=O)C1=C(C)NC(C)=C(C(=O)OC)C1c1ccccc1-c1cccs1	173 to 175 °C
CCCCCn1cc2cc(CCCC)oc2nc1=O	139 to 141 °C
NC(=S)c1ccc(CC(NC(=O)OCc2ccccc2)C(=O)NCC(=O)NCCC(=O)OCc2ccccc2)cc1 (racemic)	150 to 151 °C
CCC(C)N(C)C(=O)c1cc2sccc2c(-c2ccccc2)n1 (stereo not drawn)	104 °C
CCOC(=O)c1nc(C2CC2)nc(N)c1/C=C/[Si](C)(C)C	99 to 101 °C
CCOC1=NS(=O)(=O)C(C#N)=C1N	228 to 229 °C
CCn1c([N+](=O)[O-])cnc1-c1nnc2ccc(Cl)nn12	164 to 166 °C
Nc1nc(Nc2ccccc2)nc(-c2cc(Cl)ccc2Cl)n1	180 to 181 °C
CN1C(=S)C(C)(C)N=C1SCc1ccccc1N(C)C	76 to 78 °C
CC1C(=O)c2cc([N+](=O)[O-])ccc2OC1(C)C (stereo not drawn)	78 °C
CCCCn1c(=O)c2c(NC)n[nH]c2n(CCOCc2ccccc2)c1=O	214 to 216 °C
COc1nc(OC)nc(SC(C(=O)O)C(C)(C)c2ccccc2)n1 (stereo not drawn)	115 to 118 °C
CCOC(=O)c1cccc([N+](=O)[O-])c1NC(=O)OC(C)(C)C	104 to 105 °C
CC[C@H](C)[C@H](OCc1ccccc1)[C@H]1[C@H]([N+](=O)[O-])[C@H](c2ccccc2)N[C@@H]1C(=O)NCC(=O)O	156 to 157 °C
Cc1nc(Cn2c(=O)sc3cc(F)c(N4C(=O)C5=C(CCCC5)C4=O)cc32)no1	198 to 199 °C
FC(F)(F)Oc1ccc2nc(C(F)(F)F)[nH]c2c1	158 to 160 °C
CCCNC(=O)c1nc2n(n1)-c1ccc(Cl)cc1C(c1ccccc1Cl)=NC2	110 to 113 °C
O=C1NC(=O)C(Sc2ccc(Br)cc2)S1 (stereo not drawn)	115 to 117 °C
CCCCCCCCCCCCCCCCOC1=C(OCCCCCCCCCCCCCCCC)c2nc3c(Br)sc(Br)c3nc21	71.5 °C
CC(C)(C)C(O)C(CS(=O)(=O)c1ccccc1)n1cncn1 (stereo not drawn)	145 °C
CCCCCCCCCCCCCCCCO[C@@H]1CCCO[C@H]1COP(=O)([O-])OCC[N+](C)(C)C (relative stereo)	85 to 92 °C

SMILES	melting point
COCCn1nc2c(N)nc3ccccc3c2c1CCCCNS(C)(=O)=O	159 to 161 °C
CSCc1cc([N+](=O)[O-])ccc1N	72 to 77 °C
CNC(=O)NC1CCCc2sccc21 (stereo not drawn)	183 to 186 °C
Cc1nc(C=CNC(=O)c2cccc(C(F)(F)F)c2)n[nH]1	153 to 154 °C
Nc1ccc(S(=O)(=O)NCCc2ccccc2)cc1	114 °C
CCCCCCCCC(Cc1cccnc1)(C(=O)NO)S(=O)(=O)c1ccc(OC)cc1 (stereo not drawn)	62 °C
O=C(c1ccc(Br)s1)c1c(F)c(F)cc(F)c1F	51 to 54 °C
CC(C)(C)OC(=O)N1CCc2cc3ccccc3n2CC1	129 to 132 °C
CCOC(=O)Cn1c2ccc(Cl)ccc-2c(C(=O)OCC)c1=O	177 to 179 °C
CCOC(=O)CC(=O)c1c(F)cc(Br)cc1F	49 to 52 °C
Nc1cc(N)c(OCC(F)(F)F)cc1OCC(F)(F)F	109 °C
Nc1nnc(-c2ccc(F)c(F)c2Nc2ccc(Br)cc2F)o1	245 °C
CN(CCCCC(=O)N1CCN(c2nc3cc(C(=O)Nc4nc(C(C)(C)C)cs4)ccn3c(=O)c2/C=C/C(=O)O)CC1)CC(=O)O	169 to 172 °C
COC(=O)[C@H]1NC(=O)[C@H]1N (relative stereo)	59 to 61 °C
CC(c1ccc(-c2ccccc2)s1)N(O)C(N)=O (stereo not drawn)	150 to 152 °C
COC1(C(=O)Nc2ccc(OC(C)C)c(Cl)c2)CC1	86 to 87 °C
C[C@H]1CCCC(C)(C)[C@@H]1[C@H](O)c1ccc(F)c(C#N)c1	118 to 119 °C
CCc1onc(-c2ccccc2)c1C(=O)NCCCCl	75 to 76 °C
Cc1oc(C)c(C(=O)O)c1C(=O)O	232 to 235 °C
CCOC(=O)CCC(C=Cc1ccc(OC)c(OC)c1)=C1SC(=S)NC1=O	178 to 180 °C
CCCCCc1ccc(OCC(=O)O)c(CCCCC)c1	115 to 120 °C
COc1ccc(NN)c(C)c1	105 °C
CC(C)(C)c1cc(C(=O)Nc2ccc(CC(=O)O)cc2)cc(C(C)(C)C)c1O	253 to 254 °C

The next lines start with the values.

melting point	SMILES
217 to 218 °C	Cc1ccc(C(=O)Nc2nc(-c3ccccc3)c(-c3nc4ccccc4c(=O)n3-c3ccc(C)cc3)s2)cc1
139 to 140 °C	COc1ccc(-c2c(Cl)c(CN3CCCC3=O)nc3sc4c(c23)CCN(Cc2ccccc2)C4)cc1OC
260 to 261 °C	CSc1nccc(-c2c[nH]c(=O)n2-c2ccc(F)cc2)n1
166 to 167 °C	c1ccc2c(c1)nc(-c1ccc3c(c1)OCO3)n2Cc1ccncc1
153 to 154 °C	COc1ccc(C2=NN(C3CCN(C(=O)[C@H](C)NC(=O)NC(C)(C)C)CC3)C(=O)[C@@H]3CC=CC[C@H]23)cc1OC
265 to 270 °C	Cn1c(=O)[nH]c(=O)n(-c2cc(O)ccc2Br)c1=O
262 to 264 °C	O=C1CCC(c2ccc(-n3cnc4ccccc43)cc2)=NN1
204 °C	Cc1ccc(-c2c(NS(=O)(=O)c3cccc4ccccc34)ncnc2OCCOc2ncc(Br)cn2)cc1
230 to 231 °C	COC(=O)c1cccc2c1CC(c1csc(-c3ccncc3)n1)C(=O)N2 (stereo not drawn)
161 to 165 °C	Cc1ccc(C2COc3cc(O)ccc3C2c2ccc(OCCN3CCCC3)cc2)cc1 (stereo not drawn)
49.7 °C	CCCCc1ccc(C(=O)Oc2ccc(C=O)cc2)cc1
180 to 181 °C	COC(=O)c1ccc(-c2nc(-c3cc(C(F)(F)F)cc(C(F)(F)F)c3)co2)cc1
280 °C	O=C(NC1=NCCS1)c1c(C(F)(F)F)nc(-c2ccccc2)c(-c2ccccc2)c1O
73 to 74 °C	CCOC(=O)c1sc(Oc2ccccc2)c2c1CCC(C(OCC)OCC)C2=O (stereo not drawn)
142 to 144 °C	CN(C)C(=O)N(N=Cc1ccc(OC(F)(F)C(F)F)cc1)C(=N)NN=Cc1ccc(OC(F)(F)C(F)F)cc1
149 to 150 °C	CS(=O)c1ccc(C2=C(c3ccccc3)C(=O)C(C)(C)O2)c(F)c1 (stereo not drawn)
208 to 210 °C	Cc1ccc(C(=O)NC(NC(=S)Nc2ccc(F)cc2)C(F)(F)F)cc1 (stereo not drawn)
190 to 191 °C	COC(=O)c1cc(-c2cccc(C(F)(F)F)c2)c(=O)n2c1-c1sccc1SCC2
127 °C	O=[N+]([O-])c1ccc(OC2OC(CO)C(O)C(OCc3ccccc3)C2O)cc1 (stereo not drawn)
110 to 111 °C	CCOCc1cnn2c(-c3cccc(C(F)(F)F)c3)ccnc12
201 °C	Cc1ccc(-c2ccc(Cl)c(OC3SCC(O)C(O)C3O)c2)cn1 (stereo not drawn)
193 °C	N#CC1=C(C2CCCC2)Nc2n[nH]cc2C1c1cccc2nonc12 (stereo not drawn)
158 to 160 °C	COc1cc(N2CCOCC2)ccc1C(=O)O
54 to 57 °C	CCCOC(=O)c1cc(-c2ccc(Cl)cc2)cnc1C
109 to 110 °C	CCC(NC(C)=O)c1ccc(CN2CCN(c3ccccc3)CC2)cc1 (stereo not drawn)
109 to 110 °C	O=c1n(CCCF)nnn1-c1cc(Oc2ccc([N+](=O)[O-])cc2)c(Cl)cc1F

melting point	SMILES
186 to 190 °C	O=C(Nc1ccccc1)c1ccc(-c2n[nH]c3c2Cc2ccccc2-3)cc1
118 to 119 °C	COc1ccc(C2=NN(C3CCN(S(=O)(=O)c4ccccc4OC(F)(F)F)CC3)C(=O)CC2)cc1OC
218 to 220 °C	COc1cc(OC)c(-c2cc3ccccc3[nH]2)cc1C=CC(=O)c1ccc(S(=O)(=O)NC(C)=O)cc1
219 to 220 °C	Cc1nc(-c2cccc3c2C2(COc4cc5c(cc42)OCCO5)C(=O)N3C)cs1 (stereo not drawn)
98 to 100 °C	O=C(CN1CCC(Cc2ccc(F)cc2)CC1)Nc1cccc(NCc2ccccc2)c1
195 °C	CC#CC(=O)N[C@H]1CC[C@H](CCN2CCC(c3cccc4c3CCO4)CC2)CC1
> 300 °C	O=C(O)C1CCN(Cc2cc(Br)cc3[nH]c(=O)c(=O)[nH]c23)CC1
207 to 209 °C	COc1ccc(S(=O)(=O)Nc2cccc(C)c2NC(=O)c2cccnc2)cc1
115 to 118 °C	COc1cc(N)c(Cl)cc1C(=O)NCC1CCN(CCCCCC(=O)c2cccs2)CC1
133 to 137 °C	CCN(C)C(=O)N1N=C2c3cc(F)ccc3OC[C@@H]2[C@@H]1c1ccccc1 (racemic)
91.5 to 94 °C	O=C(O)CCCOc1ccc([C@H]2c3ccc(O)cc3OC[C@H]2c2ccccc2)cc1 (racemic)
258 to 260 °C	CNC(=O)Nc1ccc(N2CCN(c3ccncc3)CC2)cc1
166 to 169 °C	CCOC(=O)C1(Cc2ccc(OC)c(OC)c2)C(=S)NCC1c1ccc(OC)c(OC)c1 (stereo not drawn)
139 °C	CC(C)c1ccc(S(=O)(=O)n2c(Cc3ccc(C(=O)O)c(O)c3)cc3cc(Cl)ccc32)cc1
223 to 225 °C	O=C(Cc1ccc(Cl)cc1C(=O)O)Nc1cccc(/C=C/c2nc(C3CCC3)cs2)c1
236 to 237 °C	COc1ccc(-c2nc3scc(-c4cc(C(C)(C)C)c(O)c(C(C)(C)C)c4)n3c2-c2ccc(OC)cc2)cc1
177 °C	CC(=O)Nc1ccc(-c2cc(C(=O)c3ccc(S(C)(=O)=O)cc3)sc2N2CCOCC2)cc1
89 to 91 °C	CCC(=C(c1ccccc1)c1ccc(OCC(O)CO)cc1)C1CCCC1 (stereo not drawn)
162 to 164 °C	CN(C1c2cc(OCc3ccccc3)ccc2OC(C)(C)C1O)S(C)(=O)=O (stereo not drawn)
154 to 157 °C	Cn1nc(C(O)c2ccccc2)nc1NCC(O)COc1cccc(CN2CCCCC2)c1 (stereo not drawn)
81 to 82.5 °C	COc1ccc(/C=C(\C#N)c2ccccc2N)cc1OC1CCCC1
130 to 131 °C	COc1ccc(-c2nnn(-c3ccc(C(F)(F)F)cc3Cl)c2N)cc1
198 to 201 °C	NC(=S)Nc1cc(-c2ccccc2)nn1-c1ccccc1
121 to 122 °C	CCCCN1CCN(c2nsc3nc4ccccc4n23)CC1
143 to 145 °C	COc1ccc(Cn2c3c(c(C#N)c2NC2=CC(=O)CCC2)CCCC3)cc1
